Results reported in US20190105367A1, “ANTIMICROBIAL 4-OXOQUINOLIZINES” (Emergent Product Development Gaithersburg Inc., priority 2011, published 2019).
In brackets after ≈: the same amount, converted by molar mass. Several values for one entry are separate records, joined by “and”; a condition that tells them apart may be missing. Equal values may be shown once. Read-outs that look alike come from different tables or passages of the source. Marks after values point to notes of the source that are not given here.

What was measured:
[1] = test system: GN31 Acinetobacter baumannii antibiotic susceptible isolate; experiment: Chequerboard synergy with polymyxin B, FICI (Example 6); format: cell-based
Description: (§1) A chequerboard technique was used to identify possible synergistic or antagonistic interactions between the 4-oxoquinolizines compounds, levofloxacin and polymyxin B. Levofloxacin was included as a control. […] Final dilutions were made in Mueller-Hinton broth, the specific test medium used for MIC determinations according to CLSI guidelines (CLSI. Methods for Dilution Antimicrobial Susceptibility Tests for Bacteria That Grow Aerobically; Approved Standard-Eighth Edition (2009). CLSI Document M07-A8. CLSI, Wayne, Pa. 19087-1898, USA.). The test medium used was a cation-adjusted Mueller-Hinton Broth II (Becton Dickinson UK Ltd., Oxford Science Park, Oxford, UK, OX4 4DQ).
(§2) The compounds 2, 33 and 35, as well as levofloxacin were tested in combination with polymyxin B on the following isolates: GN31 Acinetobacter baumannii—antibiotic susceptible clinical isolate, GN52 Acinetobacter baumannii—levofloxacin resistant clinical isolate, GN56 Acinetobacter baumannii—levofloxacin resistant clinical isolate, GN48 Klebsiella pneumoniae—NCTC 13443—NDM-1-metallo-β-lactamase and GN10 Pseudomonas aeruginosa—ATCC 27853—antibiotic susceptible reference isolate. All isolates are from the collection maintained at Quotient Bioresearch Ltd., Cambridge, UK.
(§3) The MIC values for the compounds and polymyxin B and levofloxacin were determined by broth microdilution following CLSI guidelines, and the MICs of agents in combination were determined as described by Pillai et. al (Pillai S K, Moellering R C Jr, Eliopoulis G M; Antimicrobial Combinations in Antibiotics in Laboratory Medicine 5th Edition (V. Lorian Ed) (2005) p 365-440). Initial MIC results were used to determine the microtiter plate patterns for the chequerboards. A suitable doubling dilution concentration range was selected such that the combination antibiotic range was at least two concentrations above and four concentrations below the MIC for each isolate. A fixed range of 0.008 to 8 mg/L was tested for polymyxin B except in the case of A. baumannii GN31 where a range of 0.004 to 4 mg/L was tested when in combination with the compounds 2, 33 and 35 as well as levofloxacin.
(§4) From the raw data, fractional inhibitory concentration indices (FICI) were determined for the compounds of the invention and levofloxacin together with polymyxin B for each isolate as follows:
(§5) FICX=concentration of the combination antibiotic in a particular row MIC of the combination drug alone
(§6) FICY=MIC of polymyxin B in combination[…]MIC of the polymyxin B alone
(§7) Additionally isobolograms were created to represent the same data visually. Here, the MIC of polymyxin B was plotted against every concentration of the combination antibiotic up to the MIC.

[2] = test system: GN48 Klebsiella pneumoniae NCTC 13443 NDM-1-β-lactamase producing isolate; experiment: as above; format: cell-based
Description: as §1, §2, §3, §4, §5, §6, §7

[3] = test system: GN52 Acinetobacter baumannii levofloxacin resistant clinical isolate; experiment: as above; format: cell-based
Description: as §1, §2, §3, §4, §5, §6, §7

[4] = test system: GN56 Acinetobacter baumannii levofloxacin resistant clinical isolate; experiment: as above; format: cell-based
Description: as §1, §2, §3, §4, §5, §6, §7

A. baumannii ATCC 19606 = experiment: Preliminary MBC without and with sub-inhibitory polymyxin B (Example 4); format: cell-based, Acinetobacter baumannii; details: for MBC +0.06 μg/ml PB: A. baumannii ATCC 19606, +0.06 μg/ml polymyxin B; for MBC +0.06 μg/ml PB / MBC without PB: 1st experiment; for MBC without PB: A. baumannii ATCC 19606, without polymyxin B
A. baumannii J2 = experiment: as above; format: cell-based, Acinetobacter baumannii; details: preliminary MBC; for MBC without PB: without polymyxin B
[5] = test system: Acinetobacter sp. (H064200250); experiment: as above; format: cell-based; details: preliminary MBC; for MBC +[…] PB / MBC without PB: Acinetobacter spp. H064200250; for MBC without PB: without polymyxin B
Method: The plates were incubated for 18-20 hours at 37° C. The MBC was read as the lowest concentration at which colony growth was ca. 90% less than the positive control (i.e. usually where single colonies or no colonies were observed).

A. baumannii A489 = experiment: MIC without and with sub-inhibitory polymyxin B (Example 4); format: cell-based, Acinetobacter baumannii
[6] = A. baumannii ATCC 19606, +0.06 μg/ml PB, 2nd experiment
[7] = A. baumannii ATCC 19606, without PB, 2nd experiment
[8] = A. baumannii J2, +[…] PB, 2nd experiment
[9] = A. baumannii J2, +[…] polymyxin B, 1st experiment
[10] = A. baumannii J2, without PB, 2nd experiment
[11] = A. baumannii J2, 1st experiment
[12] = Acinetobacter spp. H064200250 (OXA51), +[…] PB, 2nd experiment
[13] = Acinetobacter spp. H064200250 (OXA51), without PB, 2nd experiment
[14] = +[…] polymyxin B, 1st experiment
[15] = A. baumannii A489, +[…] PB, 2nd experiment
[16] = A. baumannii A489, +[…] polymyxin B, 1st experiment
[17] = A. baumannii A489, ratio, PB […], 1st experiment
[18] = A. baumannii A489, without PB, 2nd experiment
[19] = Acinetobacter baumannii, J2, read-out: MBC +[…] PB, A. baumannii J2, +[…] polymyxin B, 1st experiment
[20] = Acinetobacter baumannii, A489, A. baumannii A489, +[…] PB, 2nd experiment, read-out: MIC
[21] = Acinetobacter baumannii, A489, read-out: MIC +[…] PB, A. baumannii A489, +[…] polymyxin B, 1st experiment

| Molecule | MBC (A. baumannii ATCC 19606; [6]) [µg/mL] | MBC +0.06 μg/ml PB (A. baumannii ATCC 19606) [µg/mL] | MBC (A. baumannii ATCC 19606; [7]) [µg/mL] | MBC without PB (A. baumannii ATCC 19606) [µg/mL] | MBC (A. baumannii J2; [8]) [µg/mL] | MBC +[…] PB (A. baumannii J2; [9]) [µg/mL] | MBC (A. baumannii J2; [10]) [µg/mL] | MBC without PB (A. baumannii J2; [11]) [µg/mL] | MBC [5, 12] [µg/mL] | MBC [5, 13] [µg/mL] | MBC +[…] PB [5, 14] | MBC without PB ([5]; 1st experiment) [µg/mL] | MIC (A. baumannii A489; [15]) [µg/mL] | MIC without PB/MIC + PB (A. baumannii A489; [15]) | MIC +[…] PB (A. baumannii A489; [16]) [µg/mL] | MIC without PB/MIC + PB (A. baumannii A489; [17]) | MIC (A. baumannii A489; [18]) [µg/mL] | MBC (A. baumannii J2; [19]) [µg/mL] | MIC (A. baumannii A489; [20]) [µg/mL] | MIC (A. baumannii A489; [21]) [µg/mL] | other results |
| --- | --- | --- | --- | --- | --- | --- | --- | --- | --- | --- | --- | --- | --- | --- | --- | --- | --- | --- | --- | --- | --- |
| Polymyxin B [reference compound] | 0.25 | 0.5 | 0.5 | 0.5 | ≤0.125 | 0.5 | 0.5 | 0.5 | 0.25 | 0.25 | 0.5 µg/mL | 0.5 | 0.25 | 2 | 1 | 2 | 0.5 |  |  |  | Polymyxin B MIC alone [1]: 0.25 µg/mL and 0.5 µg/mL; Polymyxin B MIC alone [2]: 0.5 µg/mL; Polymyxin B MIC alone [3]: 0.5 µg/mL; Polymyxin B MIC alone [4]: 0.5 µg/mL; MIC without PB (A. baumannii A489; A. baumannii A489, without polymyxin B, 1st experiment): 2 µg/mL |
| Imipenem/cilastatin | 1 | 2 | 4 | 2 | ≤0.125 | ≤0.125 | 8 | 4 | 0.5 | 8 | 2 (0.5)* μg/ml | 16 | 0.25 |  | 2 |  | 64 |  |  |  |  |
| NCC[C@H](O)C(=O)N[C@@H]1C[C@H](N)[C@@H](O[C@H]2O[C@H](CN)[C@@H](O)[C@H](O)[C@H]2O)[C@H](O)[C@H]1O[C@H]1O[C@H](CO)[C@@H](O)[C@H](N)[C@H]1O [Amikacin, reference compound] |  |  |  |  |  |  |  |  |  |  |  |  |  | ≥2 |  | ≥1 |  | 4 (≈ 6.83 µM) | 64 (≈ 109 µM) | 128 (≈ 219 µM) | MBC (A. baumannii ATCC 19606; Acinetobacter baumannii, ATCC19606, A. baumannii ATCC 19606, +0.06 μg/ml PB, 2nd experiment, read-out: MBC): 8 µg/mL (≈ 13.7 µM); MBC (A. baumannii ATCC 19606; Acinetobacter baumannii, ATCC19606, read-out: MBC +0.06 μg/ml PB, A. baumannii ATCC 19606, +0.06 μg/ml polymyxin B, 1st experiment): 8 µg/mL; MBC (A. baumannii J2; Acinetobacter baumannii, J2, A. baumannii J2, +[…] PB, 2nd experiment, read-out: MBC): 0.5 µg/mL (≈ 0.854 µM); MBC ([5]; Acinetobacter, Acinetobacter spp. H064200250 (OXA51), +[…] PB, 2nd experiment, read-out: MBC): 1 µg/mL (≈ 1.71 µM); MBC ([5]; Acinetobacter, read-out: MBC +[…] PB, Acinetobacter spp. H064200250, +[…] polymyxin B, 1st experiment): 64 µg/mL (≈ 109 µM) |
| COc1c(N2C[C@@H]3CCCN[C@@H]3C2)c(F)cc2c(=O)c(C(=O)O)cn(C3CC3)c12 [Moxifloxacin] |  |  |  |  |  |  |  |  | 16 (≈ 39.9 µM) |  |  |  |  | 4 |  | 4 |  | 8 (≈ 19.9 µM) | 4 (≈ 9.96 µM) | 4 (≈ 9.96 µM) | MBC (A. baumannii J2; Acinetobacter baumannii, J2, A. baumannii J2, +[…] PB, 2nd experiment): 8 µg/mL (≈ 19.9 µM) |
